Where “and” joins values, the source holds several entries; their conditions need not be identical. Equal values may be shown once.
What was measured:
[1] = test system: sub-lethally irradiated mouse model; assay: Sub-lethally irradiated (6 Gy) mouse model, ANC; format: in vivo, mice; conditions: 500 mg/kg IP and 300 mg/kg IP after 6 Gy irradiation on day 0
Description: FIG. 9 is a graph of absolute neutrophil count (ANC) response to NaST7 (500 mg/kg IP and 300 mg/kg IP) after sub-lethal does of irradiation where mice were exposed to 6 Gy irradiation on day 0 and daily ST7 (enantiomer) was administered at two doses, beginning day 1.
In particular, absolute neutrophil count (ANC) increased after administration of NaST7 (500 mg/kg IP and 300 mg/kg IP) after sub-lethal does of irradiation (e.g., exposure to 6 Gy irradiation on day 0).

pH solubility profile [2] = format: physicochemical
Description: Sodium a-methyl hydrocinnamate was added to DI water in excess to determine the saturation solubility in water. The samples (n=3) were shaken and vortexed for about two hours to dissolve sodium a-methyl hydrocinnamate. […] The pH of the saturated solution was determined to be about 10.4.
The pH of the saturated aqueous solution was successively adjusted to pH values of 8, 7, 6, and 5 using 50% v/v phosphoric acid to determine the saturation solubility of each pH. To determine the saturation solubility at each pH, the aqueous layer obtained at each pH was diluted further in water and analyzed by UV. The pH solubility data and plot are presented in Table 1 and FIG. 13A, respectively.

pH stability profile = format: physicochemical; conditions: for Assay, initial: unit assumed; for Assay, 1 Week 60° C. / Assay, 1 Week RT: in % (unit assumed)
Description: The pH stability profile was determined at pH values of 2, 5, 6, 7, 8, 9, and 13 respectively. A pH 7 phosphate buffer at a buffer concentration of 100 mM was initially prepared. Six different aliquots of this buffer were successively adjusted to pH values of 2, […], 6, 8, 9, and 13 using either 50% v/v phosphoric acid or 1N sodium hydroxide solution. Transferred 0.2 mL of sodium α-methyl hydrocinnamate stock solution and 1 mL of alcohol into a 10.0 mL volumetric flask was made up the volume with each of the seven buffer solutions to yield a final concentration of ˜4 mg/ml of sodium α-methyl hydrocinnamate.
Diluted 0.5 ml of each solution to 5 mL with diluent and analysed by HLPC per AM-013-RO to determine the initial concentration of sodium α-methyl hydrocinnamate. The solution was divided into two parts, one part was kept at room temperature (RT) and the other part was kept at 60° C. to evaluate the stability of sodium α-methyl hydrocinnamate.

[3] = Solubility in pH 4.7 acetate buffer; format: physicochemical; conditions: pH 4.7 acetate buffer (per USP), about 100 mg/mL
Description: The sodium α-methyl hydrocinnamate was added to pH 4.7 acetate buffer (per USP) at a concentration of about 100 mg/mL.

[4] = Solubility in citrate buffer containing 30% cyclodextrin; format: physicochemical
Description: Solubility of sodium a-methyl hydrocinnamate and buffer capacity of pH 5 citrate buffers prepared at four different buffer concentrations were evaluated as presented in Table 3.

[5] = Solubility in phosphate buffer containing 20% cyclodextrin; format: physicochemical; conditions: for Final pH (upon addition of drug): 250 mg/mL
Description: Phosphate buffer solutions at a target pH of 7 were prepared at buffer concentrations of 0.5M, 0.25M, and ˜0.1M, respectively. The buffer solutions contained 20% cyclodextrin.

pH solubility profile [6] = format: physicochemical; conditions: 200 mg/mL
[7] = buffer pH 4*, pH 5* on addition of drug

CC(Cc1ccccc1)C(=O)[O-].[Na+] (stereo not drawn) [sodium α-methyl hydrocinnamate]
absolute neutrophil count (ANC) [1]: increased | saturation solubility in water (pH solubility profile [2]; DI water, n=3): 655 mg/mL | Solubility, mg/mL, Average (pH solubility profile [2]; pH (average) 5): 2.2 mg/mL | Solubility, mg/mL, Average (pH solubility profile [2]; pH (average) 6): 2.8 mg/mL | Solubility, mg/mL, samples 1, 2, 3 (pH solubility profile [2]; pH (average) 6): 2.7 mg/mL and 3.6 mg/mL and 2.2 mg/mL | Appearance (pH solubility profile [2]; pH (average) 7): Turbid solution | Solubility, mg/mL, Average (pH solubility profile [2]; pH (average) 7): 559.0 mg/mL | Solubility, mg/mL, samples 1, 2, 3 (pH solubility profile [2]; pH (average) 7): 653.5 mg/mL and 579.7 mg/mL and 443.8 mg/mL | Appearance (pH solubility profile [2]; pH (average) 8): Clear solution | Solubility, mg/mL, Average (pH solubility profile [2]; pH (average) 8): 653.3 mg/mL | Solubility, mg/mL, samples 1, 2, 3 (pH solubility profile [2]; pH (average) 8): 660.8 mg/mL and 663.6 mg/mL and 635.7 mg/mL | Appearance (pH solubility profile [2]; pH (average) 10): Clear solution | Solubility, mg/mL, Average (pH solubility profile [2]; pH (average) 10): 655.1 mg/mL | Solubility, mg/mL, samples 1, 2, 3 (pH solubility profile [2]; pH (average) 10): 631.7 mg/mL and 700.4 mg/mL and 633.3 mg/mL | solubility in aqueous solution (pH solubility profile [2]; pH values of 7 and below): almost insoluble | pH of the saturated solution (pH solubility profile [2]; water): about 10.4 | pH, 1 Week 60° C. (pH stability profile; buffer pH 2): 1.9 | pH, 1 Week RT (pH stability profile; buffer pH 2): 2.2 | Assay, initial (pH stability profile; buffer pH 2, ~4 mg/ml): 95.8% | Assay, 1 Week 60° C. (pH stability profile; buffer pH 2): 81.2 | Assay, 1 Week RT (pH stability profile; buffer pH 2): 99.8 | pH, 1 Week 60° C. (pH stability profile; [7]): 5.1 | pH, 1 Week RT (pH stability profile; [7]): 5.3 | Assay, 1 Week 60° C. (pH stability profile; [7]): 102.3 | Assay, 1 Week RT (pH stability profile; [7]): 102.9 | Assay, initial (pH stability profile; [7]): 98.8% | pH, 1 Week 60° C. (pH stability profile; buffer pH 6): 6.0 | pH, 1 Week RT (pH stability profile; buffer pH 6): 6.3 | Assay, 1 Week 60° C. (pH stability profile; buffer pH 6): 102.9 | Assay, 1 Week RT (pH stability profile; buffer pH 6): 102.9 | Assay, initial (pH stability profile; buffer pH 6): 97.2% | pH, 1 Week 60° C. (pH stability profile; buffer pH 7): 6.9 | pH, 1 Week RT (pH stability profile; buffer pH 7): 7.2 | Assay, 1 Week 60° C. (pH stability profile; buffer pH 7): 99.6 | Assay, 1 Week RT (pH stability profile; buffer pH 7): 100.7 | Assay, initial (pH stability profile; buffer pH 7): 94% | pH, 1 Week 60° C. (pH stability profile; buffer pH 8): 8.1 | pH, 1 Week RT (pH stability profile; buffer pH 8): 8.3 | Assay, 1 Week 60° C. (pH stability profile; buffer pH 8): 100.8 | Assay, 1 Week RT (pH stability profile; buffer pH 8): 100.4 | Assay, initial (pH stability profile; buffer pH 8): 97.9% | pH, 1 Week 60° C. (pH stability profile; buffer pH 9): 9.0 | pH, 1 Week RT (pH stability profile; buffer pH 9): 9.2 | Assay, 1 Week 60° C. (pH stability profile; buffer pH 9): 101.6 | Assay, 1 Week RT (pH stability profile; buffer pH 9): 102.2 | Assay, initial (pH stability profile; buffer pH 9): 98.8% | pH, 1 Week 60° C. (pH stability profile; buffer pH 13): 12.7 | pH, 1 Week RT (pH stability profile; buffer pH 13): 12.8 | Assay, 1 Week 60° C. (pH stability profile; buffer pH 13): 12.9 | Assay, 1 Week RT (pH stability profile; buffer pH 13): 11.2 | Assay, initial (pH stability profile; buffer pH 13): 23.2% | degradation (pH stability profile; pH 2 solution stored for 1 week at 60° C.): About 20% | degradation (pH stability profile; pH 13, initially): About 80% | degradation (pH stability profile; pH 13, storage for 1 week at both room temperature and 60° C.): 90% | time stable (pH stability profile; pH range of 2-9 at room temperature): at least 1 week | stability (pH stability profile; pH range of 5 to 9 when stored at 60° C.): stable for at least one week | behaviour in acetate buffer [3]: observed to separate from the aqueous layer | change of pH of buffer solution upon addition of target concentration ([4]; 0.25M and 0.1M citrate buffer, 30% Trappsol): 1.5-2 units | solubility in citrate buffers of high concentrations ([4]; 0.5M and 1 M): not soluble | Solubility (appearance) ([4]; citrate buffer 0.1 M, 30% Captisol, initial pH 4.9, 100 mg/ml): Clear | Solubility (appearance) ([4]; citrate buffer 0.1 M, 30% Captisol, initial pH 4.9, 250 mg/ml): Clear | pH ([4]; citrate buffer 0.1 M, 30% Captisol, initial pH 4.9, after addition of drug): 7.3 | Solubility (appearance) ([4]; citrate buffer 0.1 M, 30% Trappsol, initial pH 5.1, 100 mg/ml): Clear | Solubility (appearance) ([4]; citrate buffer 0.1 M, 30% Trappsol, initial pH 5.1, 250 mg/ml): Clear | pH ([4]; citrate buffer 0.1 M, 30% Trappsol, initial pH 5.1, after addition of drug): 7.0 | Solubility (appearance) ([4]; citrate buffer 0.25 M, 30% Trappsol, initial pH 5.1, 100 mg/ml): Clear | Solubility (appearance) ([4]; citrate buffer 0.25 M, 30% Trappsol, initial pH 5.1, 250 mg/ml): Clear | pH ([4]; citrate buffer 0.25 M, 30% Trappsol, initial pH 5.1, after addition of drug): 6.5 | Solubility (appearance) ([4]; citrate buffer 1.0, 0.5, 0.25 M, 30% Captisol, initial pH 4.9, 100 mg/ml): Insoluble | Solubility (appearance) ([4]; citrate buffer 1.0, 0.5 M, 30% Trappsol, initial pH 5.1, 100 mg/ml): Insoluble | solubility in phosphate buffer solutions ([5]; 0.5M, 0.25M, ~0.1M, 20% cyclodextrin, target formulation concentration): observed to dissolve at the target formulation concentration | Final pH (upon addition of drug) ([5]; phosphate buffer 0.25 M, 20% Captisol, initial pH 6.3): 7.0 | Final pH (upon addition of drug) ([5]; phosphate buffer 0.25 M, 20% Trappsol, initial pH 6.3): 6.8 | Final pH (upon addition of drug) ([5]; phosphate buffer 0.5 M, 20% Captisol, initial pH 6.2): 6.8 | Final pH (upon addition of drug) ([5]; phosphate buffer 0.5 M, 20% Trappsol, initial pH 6.3): 6.7 | Final pH (upon addition of drug) ([5]; phosphate buffer ~0.1 M, 20% Captisol, initial pH 6.8): 7.9 | Final pH (upon addition of drug) ([5]; phosphate buffer ~0.1 M, 20% Trappsol, initial pH 6.8): 7.6 | pH of aqueous solution (pH solubility profile [6]): about 10

From US10111846B2, “S isomers of alpha-methyl-hydrocinnamic acid for the treatment of blood disorders” (priority 2009, dated 2018)
